# Results published in patent US8895502B2, “β2-glycoprotein I peptide inhibitors” (Kansas State University Research Foundation, priority 2010, dated 2014).
# Ends that are not written are not given here.
# Experiments:
# endoglin = test: B16-F10 melanoma model, endoglin expression in tumors; assay type: in vivo, mouse; conditions: peptide treatment on days 1-4, 6, and 8, qRT-PCR
# Protocol: (§1) mRNA was isolated from the tumor samples that were homogenized in Trizol. The concentration of mRNA was evaluated by nanodrop and the purity by bioanalyzer. cDNA was then synthesized using random primers with the Quanta cDNA synthesis kit. Real-time PCR was then performed on a 1:100 dilution of cDNA for 18s rRNA. After 3 min denaturing at 95° C., the real-time PCR reaction consisted of 50 cycles (of 10 sec at 95° C., 20 sec at 58° C., and 10 sec at 72° C.), followed by a melt curve increasing at intervals of 0.5° from 60° C. to 95° C. RT-PCR was also performed on cDNA samples for CD31 and endoglin which are endothelial markers of angiogenesis. Fold change of each gene was determined by subtracting 18s for normalization of RNA and fold change was determined by comparing to original cells which were set to 1. Primers were obtained from Integrated DNA Technology (Coraville, Iowa) and sequences are in the table below.
# CD31 = test: Spontaneous breast cancer model, CD31 RNA expression; assay type: in vivo, mouse; conditions: mammary tumors, compared to saline treated animals
# Protocol: as §1, with “RT-PCR” for “Real-time PCR”, “0.5° C.” for “0.5°”, “VEGF” for “endoglin”, “After” for “Fold change of each gene was determined by”, “Ct values, peptide treated dCt values were normalized to saline treated samples” for “for normalization of RNA”, “calculated as ddCt.” for “was determined by comparing to original cells which were set to 1.”
substance,measurement,setting,value
H-IHFYSKNKEKKSSYTVEAHSRDGTI-OH [peptide 296Cys-Ser],endoglin RNA expression within the tumors,endoglin,attenuated
same,RNA expression of CD31,CD31,significantly decreased
